Data published in paper PMC8401933 (Molecules, 2021).
“Also recorded” adds a separate entry of the source.

How the values were obtained:
3T3-L1 cells = assay: Adipocyte differentiation, Oil Red O staining; assay type: cell-based; settings: for adipogenesis (ORO staining) / lipid accumulation / adipocyte differentiation (ORO staining): stained at day 8; for lipid accumulation / adipocyte differentiation (ORO staining): 3T3-L1, treated during differentiation; for quantity of lipid droplets (ORO staining): CX-4945 5 μM, KD025 3 μM
Experimental: (§1) The preadipocyte 3T3-L1 cell line was kindly provided by Dr. Hyun-Sung Park (University of Seoul) and cultured in Dulbecco’s modified Eagle’s medium (DMEM, Sigma-Aldrich) supplied with 10% heat-inactivated newborn calf serum (Invitrogen, CA, USA), 100 units/mL penicillin, and 100 µg/mL streptomycin (Cellgro, VA, USA). The cells were maintained in an incubator at 37 °C and 5% CO2. To initiate differentiation, the cells were incubated for additional days after 100% confluence and then further incubated in a medium containing fetal bovine serum (FBS) and a differentiation cocktail (DMI, 1 μM dexamethasone, 0.5 mM 3-isobutyl-1-methylxanthine, and 5 μg/mL insulin) as previously described. In brief, at day 3, the culture medium was replaced with DMEM/10%FBS containing 5 µg/mL insulin. Then, growth medium was changed every 2 days.
Lipid droplets of cells were stained using ORO (Sigma-Aldrich, MA, USA). In brief, the cells were washed with phosphate buffered saline and incubated with 10% formalin for 5 min. The cells were then fixed with the same volume of fresh formalin for at least 1 h. Subsequently, the cells were washed with 60% isopropanol, air dried completely, and then stained with ORO working solution (1% ORO/isopropanol: distilled water = 3:2). The stained cells were washed with water four times. Cell images were taken by a microscope (Nikon Eclipse TS100-F, Japan). Then, 100% isopropanol was added and incubated for 10 min to quantify the intensity of ORO. The quantity of extracted dye was obtained by obtaining absorbance at 540 nm in the Synergy H1 hybrid reader (BioTek, VT, USA).

[1] = test system: Pparg and Cebpa genes in 3T3-L1 cells; assay: qRT-PCR of adipogenic genes during differentiation; assay type: cell-based; settings: 3T3-L1 during differentiation; KD025 5 μM, CX-4945 10 μM, Y-27632 10 μM
Experimental: as §1
Total RNA was extracted using easy-BLUE (iNtRON Biotechnology, Dajeon, Korea) in accordance with the manufacturer’s protocol. cDNA was synthesized from 2 µg of total RNA using TOPscript^TM Drymix Kit (Enzynomics, Dajeon, Korea). qRT-PCR was performed using TB Green ® Premix Ex Taq^TM II (Tli RNAse H Plus) (TaKaRa, Japan) with Applied Biosystems QuantStudio™ 1 Real-Time PCR System (Thermo Fisher Scientific, Waltham, MA, USA). Gene expression data were normalized based on the use of the same amount of total RNA samples. The relative fold change of gene expression was calculated using the ∆Ct method.

ROCK2 = ROCK2 (Homo sapiens, UniProt O75116); assay: KINOMEscan Kd determination; settings: 11-point concentrations, duplicate
Sequence of ROCK2 (O75116 whole entry): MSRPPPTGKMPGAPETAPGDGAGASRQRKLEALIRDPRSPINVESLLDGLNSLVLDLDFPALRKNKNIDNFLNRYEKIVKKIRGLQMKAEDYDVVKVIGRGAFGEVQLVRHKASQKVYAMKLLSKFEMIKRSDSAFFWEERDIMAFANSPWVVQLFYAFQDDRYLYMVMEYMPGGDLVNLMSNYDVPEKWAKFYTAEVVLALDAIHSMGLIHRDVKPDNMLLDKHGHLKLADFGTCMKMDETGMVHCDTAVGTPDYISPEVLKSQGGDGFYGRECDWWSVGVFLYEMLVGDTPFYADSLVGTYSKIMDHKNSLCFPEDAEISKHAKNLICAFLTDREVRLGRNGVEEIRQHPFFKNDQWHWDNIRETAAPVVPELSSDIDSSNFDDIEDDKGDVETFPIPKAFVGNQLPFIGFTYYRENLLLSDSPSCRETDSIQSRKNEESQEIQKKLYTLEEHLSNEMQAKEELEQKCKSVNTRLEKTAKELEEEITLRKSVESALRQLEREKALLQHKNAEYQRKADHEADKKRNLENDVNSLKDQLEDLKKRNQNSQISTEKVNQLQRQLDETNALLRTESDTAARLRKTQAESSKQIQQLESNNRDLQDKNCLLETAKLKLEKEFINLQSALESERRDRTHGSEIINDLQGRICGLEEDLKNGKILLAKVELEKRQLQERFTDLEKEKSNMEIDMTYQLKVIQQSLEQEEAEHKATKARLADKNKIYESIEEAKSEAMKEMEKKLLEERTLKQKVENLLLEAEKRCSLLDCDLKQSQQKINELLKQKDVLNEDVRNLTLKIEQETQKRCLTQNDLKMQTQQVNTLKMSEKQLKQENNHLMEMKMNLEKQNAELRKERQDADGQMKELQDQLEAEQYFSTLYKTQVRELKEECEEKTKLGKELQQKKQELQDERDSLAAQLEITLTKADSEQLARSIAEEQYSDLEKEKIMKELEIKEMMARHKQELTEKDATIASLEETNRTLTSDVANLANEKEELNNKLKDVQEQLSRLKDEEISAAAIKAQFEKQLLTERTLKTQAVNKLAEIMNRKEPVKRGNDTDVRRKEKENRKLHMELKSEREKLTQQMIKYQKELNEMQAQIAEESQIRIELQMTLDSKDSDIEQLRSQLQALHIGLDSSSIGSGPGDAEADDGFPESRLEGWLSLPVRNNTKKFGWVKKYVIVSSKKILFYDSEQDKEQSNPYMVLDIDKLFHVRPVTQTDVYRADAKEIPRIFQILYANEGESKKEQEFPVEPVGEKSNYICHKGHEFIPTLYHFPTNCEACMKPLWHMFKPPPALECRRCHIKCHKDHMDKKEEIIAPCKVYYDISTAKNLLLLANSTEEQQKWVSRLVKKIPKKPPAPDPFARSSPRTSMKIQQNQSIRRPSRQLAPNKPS
Experimental: Dissociation constant (Kd) was measured using KINOMEscan^TM profiling service. […] The binding activity of inhibitors was monitored by measuring remained kinase-ligand binding activity. Kd was calculated based on the nonlinear least-square fit model by using the “drm” function of drc package [54] in R software (version 3.6.1).

Structure (SMILES): CN(C)c1nc2c(Br)c(Br)c(Br)c(Br)c2[nH]1 [DMAT, 2-dimethylamino-4,5,6,7-tetrabromo-1H-benzimidazole]
- adipogenesis (ORO staining) (3T3-L1 cells; 3T3-L1, 5 μM): promoting reversely the differentiation
- adipogenesis (ORO staining) (3T3-L1 cells; 3T3-L1, 30 μM): inhibited the adipogenesis
- lipid accumulation / adipocyte differentiation (ORO staining) (3T3-L1 cells): inhibited effectively

Structure (SMILES): O=S(=O)(c1cccc2cnccc12)N1CCCNCC1 [fasudil]
- lipid accumulation / adipocyte differentiation (ORO staining) (3T3-L1 cells): does not
- lipid accumulation / adipocyte differentiation (ORO staining) (3T3-L1 cells; listed as Fasudil): no significant effect

Structure (SMILES): O=C1c2ccc(O)c(O)c2C(=O)c2c(O)ccc(O)c21 [quinalizarin, 1,2,5,8-tetrahydroxyanthraquinone]
- adipogenesis (ORO staining) (3T3-L1 cells; 3T3-L1, 5, 10, and 30 μM): suppressed adipogenesis
- lipid accumulation / adipocyte differentiation (ORO staining) (3T3-L1 cells): inhibited effectively

Structure (SMILES): O=C(O)c1ccc2c(c1)nc(Nc1cccc(Cl)c1)c1ccncc12 [CX-4945]
- lipid accumulation / adipocyte differentiation (ORO staining) (3T3-L1 cells): suppressed the generation of lipid droplets; also recorded: significantly reduced the amount of accumulated fat in a dose-dependent manner
- quantity of lipid droplets (ORO staining) (3T3-L1 cells; 3T3-L1, treated during the early (days 0–1) or late (days 5–8) stage): ineffective; also recorded: lesser effect
- quantity of lipid droplets (ORO staining) (3T3-L1 cells; 3T3-L1, treated during the intermediate stage (days 1–3)): acted specifically in the middle stage; also recorded: significantly reduced
- expression of Pparg and Cebpa genes [1]: markedly suppressed
- Kd (ROCK2): no selective interaction; also recorded: did not show such cross-reactivity

Structure (SMILES): C[C@@H](N)[C@H]1CC[C@H](C(=O)Nc2ccncc2)CC1 [Y-27632]
- expression of Pparg and Cebpa genes [1]: increased; also recorded: did not suppress
